Results from patent US20060128675A1, “Method for monitoring the effectiveness of teracycline in the treatment of asthma” (priority 2002, published 2006).

How the values were obtained:
[1] = tested on: IgE production by stimulated PBMC from asthmatic subjects; test: IgE production in vitro by anti-CD40 mAb + rhIL-4 stimulated PBMC from asthmatic subjects (IgE ELISA of supernatants); assay type: cell-based, human; conditions: 10 day culture; for IgE: anti-CD40 mAb 1 ug/ml + rhIL-4 200 U/ml, ± SE, 5 asthmatic subjects; for inhibition at 0.1 µg/mL / inhibition at 1 µg/mL / inhibition at 10 µg/mL: Homo sapiens, PBMC, 240 h, versus anti-CD40 + rhIL-4 without treatment
Method: (§1) PBMC were separated from blood on a Ficoll-Paque (Pharmacia, Piscataway, N.J.) gradient (density 1.077). The PBMC were carefully removed using a transfer pipette (VWR Scientific, San Francisco, Calif.). Cells were washed twice in RPMI-1640 medium (GIBCO/BRL, Grand Island, N.Y.), resuspended in RPMI (3 ml), and counted on a hemocytometer (Fisher Scientific, Springfield, N.J.). Viability was >98%, as judged by trypan blue exclusion.
Studies of IgE responses induced in vitro were carried out according to the method of Sampson and Buckley in J. Immunol 1981, 127: 829-834. Briefly, PBMC (1.5×10^6 in 1 ml) were cultured +anti-CD40 mAb (1 ug/ml) (BD Pharmingen, San Diego, Calif.), ± recombinant human interleukin-4 (rhIL-4) (200 U/ml) (Genzyme Corp., Boston, Mass.), in the presence or absence of varying concentrations of either minocycline (Lederle Parenterals Inc., Carolina, Puerto Rico) or doxycycline (American Pharmaceutical Partner Inc., Schaumburg, Ill.), 0.1, 1.0, 10 ug/ml) for 0, 3, and 10 days at 37° C. in complete medium in a humidified 4% CO2 atmosphere. Cell viability was >98%, as judged by trypan blue exclusion, on day 10.
Antibiotics were reconstituted in sterile dH2O, according to manufacturer's recommendations. Complete medium contained RPMI-1640 (Fisher Scientific) and was supplemented with N-2-hydroxyethylpiperazine-N′-2-ethanesulfonic acid buffer (HEPES) (25 mM) (Fisher Scientific), penicillin (100 U/ml) (GIBCO/BRL), streptomycin (100 ug/ml) (Eli Lilly and Co., Indianapolis, Ind.), L-glutamine (2 mM) (GIBCO/BRL), and 10% Fetal Calf Serum (FCS) (GIB CO/BRL). The concentration of rhIL-4 in culture was within 1 bog of physiologic relevance (<100 U/ml), according to bioassay data provided by supplier.
For the in vitro quantitative determination of IgE content in cell culture supernatants, solid phase sandwich enzyme linked immunosorbent assays (ELISAs) were performed using IgE ELISA Test Kits (Abexon Trend, Ramsey, Minn.). All ELISAs were performed according to the manufacturer's recommended procedure. Specimens were analyzed in duplicate and a standard curve was derived from known concentrations of IgE. Plates were read using an automated microplate reader (Model ELX800) (Bio-Tek Instruments, Inc., Winooski, Vt.), with a 450-nm measurement filter. Optical densities were converted to IU/ml and/or ng/ml. (1 IU=2.4 ng/IgE protein).

[2] = tested on: IgE production by PBMC from non asthmatic subjects; test: IgE production in vitro by anti-CD40 mAb + rhIL-4 stimulated PBMC from non asthmatic subjects; assay type: cell-based, human; conditions: anti-CD40/rhIL-4
Method: as §1
Studies of IgE responses induced in vitro were carried out according to the method of Sampson and Buckley in J. Immunol 1981, 127: 829-834. […]
For the in vitro quantitative determination of IgE content in cell culture supernatants, solid phase sandwich enzyme linked immunosorbent assays (ELISAs) were performed using IgE ELISA Test Kits (Abexon Trend, Ramsey, Minn.). […] Specimens were analyzed in duplicate and a standard curve was derived from known concentrations of IgE. Plates were read using an automated microplate reader (Model ELX800) (Bio-Tek Instruments, Inc., Winooski, Vt.), with a 450-nm measurement filter. […]

[3] = tested on: rheumatoid arthritis (RA) patients; conditions: mild and moderate RA patients; cited from earlier work

| SMILES | IgE ([1]; 0.1 ug/ml) [ng/mL] | IgE ([1]; 1.0 ug/ml) [ng/mL] | IgE ([1]; 10 ug/ml) [ng/mL] | inhibition at 0.1 µg/mL ([1]; 0.1 ug/ml) [%] | inhibition at 1 µg/mL ([1]; 1.0 ug/ml) [%] | inhibition at 10 µg/mL ([1]; 10 ug/ml) [%] | effect on IgE responses of PBMC of non asthmatic donors [2] | side effects [3] |
| --- | --- | --- | --- | --- | --- | --- | --- | --- |
| C[C@H]1c2cccc(O)c2C(=O)C2=C(O)[C@]3(O)C(=O)C(C(N)=O)=C(O)[C@@H](N(C)C)[C@@H]3[C@@H](O)[C@@H]21 [doxycycline] | 20 ± 9 | 14 ± 7 | 5 ± 2 | 29 | 50 | 83 | no effect |  |
| CN(C)c1ccc(O)c2c1C[C@H]1C[C@H]3[C@H](N(C)C)C(O)=C(C(N)=O)C(=O)[C@@]3(O)C(O)=C1C2=O [minocycline] | 16 ± 5 | 18 ± 7 | 5 ± 2 | 43 | 36 | 83 | no effect | no side effects |
